Key:
[1] = system: rat myocardial infarction model; details: cited from earlier work
[2] = system: bone marrow derived macrophages (BMDMs); assay: BMDM culture on hydrogel films: cell attachment, total cell count, viability (Zombie Violet); assay type: cell-based, C57BL/6 mice; details: after 24 hours of culture
Description: Murine bone marrow derived macrophages (BMDM) were isolated from 8-12 week-old C57BL/6 mice (Charles River) according to a protocol approved by the University of Toronto Animal Care Committee. The mice were euthanized, and the femur and tibias were removed and placed in complete RPMI 1640+L-glutamine media (Gibco, 10% heat inactivated Fetal Bovine Serum, FBS, 1% Pen/Strep). The bones were separated and sterilized in 70% ethanol for 10 minutes. The heads of the bones were cut off, and the marrow was flushed out with a 23 G needle containing fresh complete RPMI 1640 media. The remaining cell culture media and bone marrow was homogenized by gentle pipetting. The cells were spun down and resuspended in ACK Lysing Buffer (Gibco) for 1 min to lyse remaining red blood cells. The lysing buffer was diluted with PBS, and the cell suspension was re-spun, and counted. […]
Adherent macrophages were detached by incubating with 0.25% trypsin-EDTA for 10 minutes. […] After 24 hours of culture, cell culture media was collected for ELISA analysis by Eve Technologies (Calgary, AB), and the concentrations of INF-γ, IL-1β, IL-2, IL-4, IL-6, IL-10, IL-12 p′70, GM-CSF, MCP-1, TNF-α, TGF-β31, TGF-β2, and TGF-β3 were measured. […]

[3] = system: bone marrow derived macrophages (BMDMs); assay: ELISA of cytokines released by BMDMs into culture media; assay type: cell-based, C57BL/6 mice; details: 24 hours of culture
Description: Murine bone marrow derived macrophages (BMDM) were isolated from 8-12 week-old C57BL/6 mice (Charles River) according to a protocol approved by the University of Toronto Animal Care Committee. The mice were euthanized, and the femur and tibias were removed and placed in complete RPMI 1640+L-glutamine media (Gibco, 10% heat inactivated Fetal Bovine Serum, FBS, 1% Pen/Strep). The bones were separated and sterilized in 70% ethanol for 10 minutes. The heads of the bones were cut off, and the marrow was flushed out with a 23 G needle containing fresh complete RPMI 1640 media. The remaining cell culture media and bone marrow was homogenized by gentle pipetting. The cells were spun down and resuspended in ACK Lysing Buffer (Gibco) for 1 min to lyse remaining red blood cells. The lysing buffer was diluted with PBS, and the cell suspension was re-spun, and counted. Cells were seeded at 3 million cells/well in non-adherent 6-well culture plates containing 2 mL of complete RPMI 1640 media with 20 ng/mL of Macrophage Colony Stimulating Factor (M-CSF, Miltenyi Biotec). Half (50%) of the media was changed on day 3, and 5. On day 7, adherent cells were used as macrophages for experiments. Macrophage purity, as identified by F4/80+, CD11b+ positive staining, under all culture stimulations is >90%, consistent with previous studies (FIG. 6B).
Adherent macrophages were detached by incubating with 0.25% trypsin-EDTA for 10 minutes. Cells were polarized in response to the following treatment conditions: blank-included cultivation on tissue culture plastics; soluble Q-Peptide (650 μM) applied to macrophages cultivated on tissue culture plastics; and macrophages cultivated on the following hydrogel films: no peptide collagen-chitosan (empty) film, scrambled Q-Peptide film, and Q-Peptide film. BMDMs were polarized with lipopolysaccharide (LPS; 100 ng/mL) for pro-inflammatory, M(LPS), and IL-4 ([…]) for anti-inflammatory, M(IL-4) positive polarization controls. Cells were seeded directly onto a non-adherent 6-well plate for the blank and soluble Q-Peptide conditions, and onto solvent cast films for the empty film, scrambled Q-Peptide film, and Q-Peptide film at a concentration of 100,000 cells/cm^2. After 24 hours of culture, cell culture media was collected for ELISA analysis by Eve Technologies (Calgary, AB), and the concentrations of INF-γ, IL-1β, IL-2, IL-4, IL-6, IL-10, IL-12 p′70, GM-CSF, MCP-1, TNF-α, TGF-β31, TGF-β2, and TGF-β3 were measured.

wounds = wounds treated; cited from earlier work
[4] = compared to blank, soluble Q-Peptide and empty film (LPS: vs Q-Peptide film)

For “QHREDGS (SEQ ID NO: 1) with biotin-Ahx N-terminal modification [soluble Q-Peptide]”, the “effectiveness in myocardial infarction model” value [1] is listed as “effective”, the “final cell count (cells in solution and attached)” value [2] is listed as “did not affect the final cell count” and the “cell attachment (number of adhered cells/mm2)” value ([2]; compared with blank culture conditions) is listed as “decrease in cell attachment”. The “BMDM cytokine release / cytokine concentration (overall)” value [3] was “only had an effect on BMDM cytokine release when immobilized to a hydrogel”.

With lipopolysaccharide [LPS] the “concentration of IL-6” value [3, 4] was “an order of magnitude greater”, the “concentration of MCP-1” value [3, 4] was “an order of magnitude greater” and the “concentration of IL-10” value ([3]; relative to the other culture conditions (LPS: vs Q-Peptide film)) was “an order of magnitude greater”.

B1: recombinant human TGF-β3: recombinant human TGF-β3 used to treat wounds in a clinical trial (protein, UniProt P10600 301-412, looked up)
Transforming growth factor …: ALDTNYCFRNLEENCCVRPLYIDFRQDLGWKWVHEPKGYYANFCSGPCPYLRSADTTHSTVLGLYNTLNPEASASPCCVPQDLEPLTILYYVGRTPKVEQLSNMVVKSCKCS
In the case of B1, the “primary and secondary outcomes of a Phase III trial” value (wounds) is listed as “failed to reach primary and secondary outcomes”.

— patent US11766469B2, “Q-peptide hydrogel promotes immune modulation and macrophage differentiation” (Quthero, Inc., priority 2019, dated 2023)
